Results taken from paper PMC12546632, “The role of cytochrome bc1 inhibitors in future tuberculosis treatment regimens” (Nature Communications, 2025).
≈ marks a conversion by molar mass, not a printed value. Where “and” joins values, the source holds several entries; their conditions need not be identical. Identical values can stand only once. Like-named read-outs stand apart in the source and are kept apart here.

Legend:
2C9 = molecular target: T1, 2C9 (Homo sapiens, UniProt P11712); assay type: in vitro ADME
T1 construct: from tissue; host or cells: human liver microsomes
T1 sequence (P11712 whole entry): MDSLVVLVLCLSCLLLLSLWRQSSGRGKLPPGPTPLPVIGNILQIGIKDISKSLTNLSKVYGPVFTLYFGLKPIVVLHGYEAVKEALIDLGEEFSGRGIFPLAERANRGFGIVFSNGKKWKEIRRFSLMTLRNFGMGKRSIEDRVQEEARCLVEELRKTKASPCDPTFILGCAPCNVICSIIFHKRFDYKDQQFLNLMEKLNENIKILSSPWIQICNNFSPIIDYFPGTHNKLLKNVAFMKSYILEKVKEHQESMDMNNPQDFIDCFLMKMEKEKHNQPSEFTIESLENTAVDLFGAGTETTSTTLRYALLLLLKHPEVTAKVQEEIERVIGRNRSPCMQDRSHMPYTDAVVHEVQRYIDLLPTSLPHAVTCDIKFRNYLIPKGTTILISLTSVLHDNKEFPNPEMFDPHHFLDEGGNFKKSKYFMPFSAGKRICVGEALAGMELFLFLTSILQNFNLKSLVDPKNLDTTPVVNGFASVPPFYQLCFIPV

[1] = mouse, in vivo, iv, 1 mg/kg
clinical isolate, N1283 = system: clinical isolate, N1283; set-up: species or system Mycobacterium tuberculosis; conditions: in vivo
M. tuberculosis H37Rv [2] = assay: MIC90 determination, H37Rv; assay type: cell-based, Mycobacterium tuberculosis
[3] = system: M. tuberculosis clinical isolates; assay: microbe, parasite or virus in culture; assay type: cell-based, Mycobacterium tuberculosis
WT H37Rv = assay type: cell-based, Mycobacterium tuberculosis; conditions: biological replicates
3A4 = molecular target: T2, 3A4 (Homo sapiens, UniProt P08684); assay type: in vitro ADME
T2 construct: from tissue; host or cells: human liver microsomes
T2 sequence (P08684 whole entry): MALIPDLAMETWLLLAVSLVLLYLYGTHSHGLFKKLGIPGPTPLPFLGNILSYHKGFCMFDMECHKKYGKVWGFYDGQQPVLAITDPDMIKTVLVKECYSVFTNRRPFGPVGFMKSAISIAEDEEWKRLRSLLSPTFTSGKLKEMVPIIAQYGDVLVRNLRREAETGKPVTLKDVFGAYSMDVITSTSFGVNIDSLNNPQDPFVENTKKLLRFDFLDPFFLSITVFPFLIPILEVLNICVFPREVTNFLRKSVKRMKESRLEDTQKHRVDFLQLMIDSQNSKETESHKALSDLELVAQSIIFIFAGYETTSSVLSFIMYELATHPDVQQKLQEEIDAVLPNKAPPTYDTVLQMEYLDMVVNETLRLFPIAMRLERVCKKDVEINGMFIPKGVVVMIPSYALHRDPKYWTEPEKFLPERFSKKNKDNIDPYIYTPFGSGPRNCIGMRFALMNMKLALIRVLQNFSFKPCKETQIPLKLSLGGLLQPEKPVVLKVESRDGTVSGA

1A2 = molecular target: T3, 1A2 (Homo sapiens, UniProt P05177); assay type: in vitro ADME
T3 construct: from tissue; host or cells: human liver microsomes
T3 sequence (P05177 whole entry): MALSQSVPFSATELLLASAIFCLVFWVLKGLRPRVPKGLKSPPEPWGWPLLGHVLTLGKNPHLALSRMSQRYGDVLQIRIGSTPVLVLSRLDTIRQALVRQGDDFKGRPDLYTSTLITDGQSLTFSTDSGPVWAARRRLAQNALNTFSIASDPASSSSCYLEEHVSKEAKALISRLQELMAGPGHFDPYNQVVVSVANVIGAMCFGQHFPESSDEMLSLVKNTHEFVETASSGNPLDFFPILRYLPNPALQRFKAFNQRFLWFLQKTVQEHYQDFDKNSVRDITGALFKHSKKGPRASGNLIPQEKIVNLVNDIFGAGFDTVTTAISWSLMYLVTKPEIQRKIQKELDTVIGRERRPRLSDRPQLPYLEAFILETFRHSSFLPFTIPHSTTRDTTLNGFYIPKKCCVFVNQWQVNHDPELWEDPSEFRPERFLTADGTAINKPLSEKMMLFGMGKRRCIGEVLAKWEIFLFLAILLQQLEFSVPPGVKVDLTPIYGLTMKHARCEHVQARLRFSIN

[4] = system: Salmonella typhimurium strains TA98 and TAMix
2C19 = molecular target: T4, 2C19 (Homo sapiens, UniProt P33261); assay type: in vitro ADME
T4 construct: from tissue; host or cells: human liver microsomes
T4 sequence (P33261 whole entry): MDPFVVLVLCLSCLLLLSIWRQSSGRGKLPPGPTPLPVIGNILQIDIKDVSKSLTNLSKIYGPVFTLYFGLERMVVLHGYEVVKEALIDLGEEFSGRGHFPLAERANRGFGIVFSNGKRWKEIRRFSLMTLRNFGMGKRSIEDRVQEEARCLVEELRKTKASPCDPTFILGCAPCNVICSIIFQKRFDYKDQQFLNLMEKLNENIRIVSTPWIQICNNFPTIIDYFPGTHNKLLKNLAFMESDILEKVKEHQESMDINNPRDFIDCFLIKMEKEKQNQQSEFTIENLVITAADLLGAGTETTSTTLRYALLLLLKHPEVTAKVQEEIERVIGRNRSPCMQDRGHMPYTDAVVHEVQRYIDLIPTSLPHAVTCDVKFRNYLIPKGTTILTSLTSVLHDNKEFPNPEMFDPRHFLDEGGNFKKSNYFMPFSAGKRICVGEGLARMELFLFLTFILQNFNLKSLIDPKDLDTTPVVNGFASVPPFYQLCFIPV

[5] = system: M. tuberculosis ΔcydAB (Parent); assay: microbe, parasite or virus in culture; assay type: cell-based
2D6 = molecular target: T5, 2D6 (Homo sapiens, UniProt P10635); assay type: in vitro ADME
T5 construct: from tissue; host or cells: human liver microsomes
T5 sequence (P10635 whole entry): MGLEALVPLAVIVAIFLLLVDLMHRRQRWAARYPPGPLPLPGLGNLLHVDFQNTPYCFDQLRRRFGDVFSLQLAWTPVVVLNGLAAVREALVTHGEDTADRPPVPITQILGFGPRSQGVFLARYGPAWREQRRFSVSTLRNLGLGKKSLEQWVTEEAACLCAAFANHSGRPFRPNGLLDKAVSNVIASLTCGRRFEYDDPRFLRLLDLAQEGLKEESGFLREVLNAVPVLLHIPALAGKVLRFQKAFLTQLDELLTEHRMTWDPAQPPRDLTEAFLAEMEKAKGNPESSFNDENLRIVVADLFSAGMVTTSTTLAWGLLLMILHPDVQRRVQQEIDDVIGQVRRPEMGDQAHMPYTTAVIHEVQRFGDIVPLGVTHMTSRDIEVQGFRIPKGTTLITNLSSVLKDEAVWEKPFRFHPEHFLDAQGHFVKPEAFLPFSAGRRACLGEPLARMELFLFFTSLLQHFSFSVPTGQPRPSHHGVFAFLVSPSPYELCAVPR

M. tuberculosis H37Rv [6] = assay: MBC99.9 determination, H37Rv; assay type: cell-based, Mycobacterium tuberculosis
H37Rv_CydBd-KO = assay: microbe, parasite or virus in culture; assay type: cell-based, Mycobacterium tuberculosis
[7] = assay type: in vitro ADME
Method: (§1) Details of the metabolic stability in liver microsomes and hepatocytes together with CYP inhibition in human liver microsomes and plasma protein binding have been published previously. The CYP induction assay was conducted by Puracyp Inc (www.puracyp.com). Studies were designed to evaluate the effect of compounds on the activation of human PXR (hPXR). The DPX2TM cells harbour the human PXR gene (NR1I2) and a luciferase reporter gene linked to two promoters identified in the human CYP3A4 gene, namely XREM and PXRE. These cells were seeded in a 96-well plate. Twenty-four hours after seeding, the cells were treated with various concentrations of compounds then incubated for an additional 24 h. Following this, the number of viable cells per well were determined using Promega’s CellTiter Fluor Cytotoxicity Assay. Briefly, One-Glo was added to the same wells and reporter gene activity was assessed. The luminescence light intensity was directly proportional to the extent of PXR activation and accompanying gene transcription in the DPX2TM cells.

human PXR (hPXR) = human PXR (hPXR) (Homo sapiens, UniProt O75469); assay type: in vitro ADME
Chain of human PXR (hPXR) (O75469 whole entry): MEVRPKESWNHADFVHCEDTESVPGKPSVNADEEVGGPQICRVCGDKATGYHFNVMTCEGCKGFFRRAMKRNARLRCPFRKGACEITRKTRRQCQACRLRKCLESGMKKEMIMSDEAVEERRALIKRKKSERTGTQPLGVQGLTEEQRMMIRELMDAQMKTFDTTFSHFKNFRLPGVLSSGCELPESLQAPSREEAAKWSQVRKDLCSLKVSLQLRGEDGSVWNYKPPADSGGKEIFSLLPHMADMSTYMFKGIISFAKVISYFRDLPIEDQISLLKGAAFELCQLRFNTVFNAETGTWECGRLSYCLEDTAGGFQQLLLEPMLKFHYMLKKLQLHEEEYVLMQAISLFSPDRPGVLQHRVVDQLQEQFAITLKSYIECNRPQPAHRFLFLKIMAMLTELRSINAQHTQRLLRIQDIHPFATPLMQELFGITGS
Method: as §1

H37Rv_CytBd-KO = assay: microbe, parasite or virus in culture; assay type: cell-based, Mycobacterium tuberculosis; conditions: read-out: MBC99.9 (H37Rv_CytBd-KO)
2C8 = molecular target: T6, 2C8 (Homo sapiens, UniProt P10632); assay type: in vitro ADME
T6 construct: from tissue; host or cells: human liver microsomes
T6 sequence (P10632 whole entry): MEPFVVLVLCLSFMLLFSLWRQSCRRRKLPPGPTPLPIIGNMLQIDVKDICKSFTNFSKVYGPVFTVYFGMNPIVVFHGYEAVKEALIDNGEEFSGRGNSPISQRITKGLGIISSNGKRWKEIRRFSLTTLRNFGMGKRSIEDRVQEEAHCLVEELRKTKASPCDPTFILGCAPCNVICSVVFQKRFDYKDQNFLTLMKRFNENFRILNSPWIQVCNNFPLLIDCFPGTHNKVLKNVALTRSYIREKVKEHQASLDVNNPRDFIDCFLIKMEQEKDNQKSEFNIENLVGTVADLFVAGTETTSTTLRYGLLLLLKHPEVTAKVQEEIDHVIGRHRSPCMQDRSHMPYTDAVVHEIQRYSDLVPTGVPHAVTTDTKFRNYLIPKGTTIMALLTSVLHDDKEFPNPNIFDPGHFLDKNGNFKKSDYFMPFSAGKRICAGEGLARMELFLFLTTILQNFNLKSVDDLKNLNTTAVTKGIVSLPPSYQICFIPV

N1283 clinical isolate = assay type: cell-based, Mycobacterium tuberculosis; conditions: biological replicates
[8] = assay type: in vitro ADME; conditions: hepatocytes
M. tuberculosis HN878 = conditions: telacebec added to BPaC, after 4 weeks of treatment; cited from earlier work

For `CCc1nc2ncc(C)cn2c1C(=O)NCc1ccc(N2CCN(S(=O)(=O)C(F)(F)F)C=N2)c(F)c1` [JNJ-4052], the IC50 (2C9) was over 20 µM, the “CLp as % LBF” value [1] was ~ 11 % LBF and the CFU reduction (clinical isolate, N1283) was 1.6 log10. For the same molecule, the MIC90 (M. tuberculosis H37Rv [2]; read-out: MIC90 (H37Rv)) was 7 nM (≈ 3.69 ng/mL), the MIC90 (M. tuberculosis H37Rv [2]; strain H37Rv (Institut Pasteur, lineage 4), read-out: MIC90) was 6 nM (≈ 3.17 ng/mL) and the MIC90 ([3]; strain Mtb-0617 (Karonga, lineage 3)) was 1.3 nM (≈ 0.686 ng/mL). For the same molecule, the MIC90 ([3]; strain Mtb-2703 (Karonga, lineage 3)) was 0.13 nM (≈ 0.0686 ng/mL), the MIC90 ([3]; strain Mtb-4779 (Karonga, lineage 2)) was 0.29 nM (≈ 0.153 ng/mL) and the MIC90 ([3]; strain Mtb-4980 (Karonga, lineage 4)) was 0.7 nM (≈ 0.369 ng/mL). The MIC90 ([3]; strain Mtb-6787 (Karonga, lineage 4)) was 0.71 nM (≈ 0.375 ng/mL), the MIC90 ([3]; strain Mtb-7489 (Karonga, lineage 1)) was 2.5 nM (≈ 1.32 ng/mL) and the MIC90 ([3]; strain Mtb-7496 (Karonga, lineage 3)) was 0.29 nM (≈ 0.153 ng/mL). For the same molecule, the MIC90 ([3]; strain Mtb-9271 (Karonga, lineage 4)) was 0.2 nM (≈ 0.106 ng/mL), the MIC90 ([3]; strain Mtb-61164 (Karonga, lineage 2)) was 0.79 nM (≈ 0.417 ng/mL) and the MIC90 ([3]; strain N0054 (Gagneux, lineage 3)) was 0.85 nM (≈ 0.448 ng/mL). For the same molecule, the MIC90 ([3]; strain N0072 (Gagneux, lineage 1)) was 1.2 nM (≈ 0.633 ng/mL), the MIC90 ([3]; strain N1283 (Gagneux, lineage 4)) was 0.73 nM (≈ 0.385 ng/mL) and the CFU counts (WT H37Rv; Conc 8 nM) was 50000000 CFU and 20000000 CFU and 53000000 CFU and 30000000 CFU. The CFU counts (WT H37Rv; Conc 32 nM) was 17000000 CFU and 12000000 CFU, the CFU counts (WT H37Rv; Conc 128 nM) was 26000000 CFU and 17000000 CFU and the IC50 (3A4) was over 20 µM. For the same molecule, the IC50 (1A2) was over 20 µM, the “Mutagenicity (AMES II)” value [4] was “negative” and the IC50 (2C19) was over 20 µM. The MIC50 ([5]; Parent (ΔcydAB)) was 10 nM (≈ 5.28 ng/mL), the IC50 (2D6) was over 20 µM and the IC20 (HepG2 cells) was 98.8 µM. The MBC (M. tuberculosis H37Rv [6]) was over 1250 nM, the MIC90 (H37Rv_CydBd-KO) was 7 nM (≈ 3.69 ng/mL) and the “Plasma protein binding, Rat (% free)” value [7] was 2.67 % free. The “Dog Hep Clint” value ([7]; hepatocytes) was 4.7 µL min-1 106 cells-1, the “Human Hep Clint” value ([7]; hepatocytes) was 6.7 µL min-1 106 cells-1 and the “Rat Hep Clint” value ([7]; hepatocytes) was 19 µL min-1 106 cells-1. The “Dog LM Clint” value ([7]; microsomes) was under 7.7 µL min-1 mg protein-1, the “Human LM Clint” value ([7]; microsomes) was 20.4 µL min-1 mg protein-1 and the “Mouse LM Clint” value ([7]; microsomes) was 42 µL min-1 mg protein-1. The “Rat LM Clint” value ([7]; microsomes) was 16.7 µL min-1 mg protein-1, the “Cyp3A4 ind. (%ctrl)” value (human PXR (hPXR); 1 µM) was 3.0 %ctrl and the “Cyp3A4 ind. (%ctrl)” value (human PXR (hPXR); 10 µM) was 21.2 %ctrl. For the same molecule, the MBC (H37Rv_CytBd-KO) was 300 nM (≈ 158 ng/mL), the IC50 (2C8) was over 20 µM and the CFU counts (N1283 clinical isolate; Conc 8 nM) was 2200000 CFU and 6000000 CFU and 800000 CFU and 200000 CFU. For the same molecule, the CFU counts (N1283 clinical isolate; Conc 32 nM) was 150000 CFU and 400000 CFU and 80000 CFU and 50000 CFU, the CFU counts (N1283 clinical isolate; Conc 128 nM) was 170000 CFU and 300000 CFU and 90000 CFU and 80000 CFU and the “Mouse Hep Clint” value [8] was 12 µL min-1 106 cells-1.

For `CCc1nc2ccc(Cl)cn2c1C(=O)NCc1ccc(N2CCC(c3ccc(OC(F)(F)F)cc3)CC2)cc1` [telacebec, reference compound], the “reduction in lung bacterial burden compared to BPaC alone” value (M. tuberculosis HN878) is listed as 2 log, the CFU counts (WT H37Rv; Conc 8 nM) is listed as 30000000 CFU and 50000000 CFU and the CFU counts (WT H37Rv; Conc 32 nM) is listed as 19000000 CFU and 32000000 CFU and 49500000 CFU. For the same molecule, the CFU counts (WT H37Rv; Conc 128 nM) was 20000000 CFU and 17000000 CFU and 41500000 CFU and 12000000 CFU, the MIC50 ([5]; Mycobacterium tuberculosis) was 10 nM (≈ 5.57 ng/mL) and the CFU counts (N1283 clinical isolate; Conc 8 nM) was 16000000 CFU and 19000000 CFU and 60000000 CFU and 40000000 CFU. The CFU counts (N1283 clinical isolate; Conc 32 nM) was 130000 CFU and 900000 CFU and 7000000 CFU and 8000000 CFU and the CFU counts (N1283 clinical isolate; Conc 128 nM) was 180000 CFU and 380000 CFU and 120000 CFU and 150000 CFU.
